The supplement of paper PMC7840683
Counter-ions that a name gives are not always drawn. ± gives the standard deviation of the averaged measurements.

System: HepaRG
Experiment: LDH release cytotoxicity, % of total lysis control; higher = more cytotoxic
Details: 48 h
How it was run: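 HepaRG cells from a single lot were plated on collagen I-coated 96-well plates and treated in duplicate for 48 h with eight-point half-log series of test chemicals, starting at 100 µM, in serum-free induction medium containing 0.5% DMSO. Total lysis wells were given 0.1% Triton X. LDH released into 50 µL of spent medium was measured as resorufin fluorescence with CytoTox-ONE on a Tecan Safire. Percent cytotoxicity was normalized to on-plate vehicle and total lysis controls and then averaged across duplicates.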

Structure (SMILES) | LDH release cytotoxicity (0.03162 µM) [%] | LDH release cytotoxicity (0.1 µM) [%] | LDH release cytotoxicity (0.3162278 µM) [%] | LDH release cytotoxicity (1 µM) [%] | LDH release cytotoxicity (3.16228 µM) [%] | LDH release cytotoxicity (10 µM) [%] | LDH release cytotoxicity (31.6228 µM) [%] | LDH release cytotoxicity (100 µM) [%] | further results
COc1ccc2sc(C(=O)Nc3nnn[nH]3)c(OC(C)C)c2c1 [CI-959] | -0.617 ± 0.98 | -2.08 ± 0.33 | -1.65 ± 0.028 | -1.45 ± 0.29 | -2.51 ± 0.029 | -2.33 ± 0.67 | 3.57 ± 1.1 | 9.3 ± 1.3 | 
Cc1cc2c3c(c1)C(c1ccccc1)=NC(NC(=O)c1ccncc1)C(=O)N3CC2 (configuration not stated) [CI-1018] | -1.91 ± 0.18 | -1.63 ± 0.47 | -1.51 ± 1.7 | -2.27 ± 0.065 | -1.93 ± 0.3 | -1.89 ± 0.24 | -2.24 ± 0.049 | 5.94 ± 0.8 | 
Cc1cc(SC2C(=O)CC(CCc3ccc(N)cc3)(C(C)C)OC2=O)c(C(C)(C)C)cc1CO (configuration not stated) [CI-1029] | -0.634 ± 0.8 | -3.84 ± 0.53 | -3.74 ± 0.38 | -3.966 ± 0.027 | -4.19 ± 0.59 | -3.49 ± 0.12 | -3.96 ± 0.73 | -2.25 ± 0.55 | 
Nc1cc2c3c(c1)C(c1ccccc1)=NC(NC(=O)c1cccnc1)C(=O)N3CC2 (configuration not stated) [CI-1044] | -1.32 ± 0.016 | -0.234 ± 0.4 | -1.37 ± 0.23 | -0.0936 ± 0.47 | -0.301 ± 0.14 | 0.515 ± 1.5 | 0.683 ± 0.68 | 0.815 ± 1.6 | 
Cn1c(=O)c2c(ncn2C)n(C)c1=O [Caffeine] | -1.5 ± 0.32 | -0.664 ± 0.51 | -1.14 ± 0.54 | -0.9619 ± 0.0096 | -1.02 ± 0.75 | -0.778 ± 0.5 | -0.135 ± 0.4 | 1.03 ± 1.2 | 
COCCOCC(CC1(C(=O)NC2CCC(C(=O)O)CC2)CCCC1)C(=O)Oc1ccc2c(c1)CCC2 (configuration not stated) [Candoxatril] | -0.831 ± 0.098 | -1.91 ± 0.43 | -0.642 ± 0.1 | -1.61 ± 0.11 | -1.03 ± 0.12 | -0.79 ± 0.29 | -0.798 ± 0.39 | 0.54 ± 0.26 | 
O=C1CCCCCN1 [Caprolactam] | -0.496 ± 0.65 | -1.92 ± 0.24 | -1.76 ± 0.37 | -0.953 ± 0.14 | -0.455 ± 0.46 | -0.823 ± 0.29 | -0.101 ± 0.44 | 1.84 ± 0.57 | 
O=C1C2CC=CCC2C(=O)N1SC(Cl)(Cl)Cl (configuration not stated) [Captan] |  |  |  |  |  |  |  |  | LDH release cytotoxicity (0.03115 µM): -0.761 ± 0.69%; LDH release cytotoxicity (0.0985 µM): -0.69 ± 1%; LDH release cytotoxicity (0.311484 µM): -1.02 ± 0.74%; LDH release cytotoxicity (0.985 µM): -1.31 ± 0.14%; LDH release cytotoxicity (3.11484 µM): -1.78 ± 0.61%; LDH release cytotoxicity (9.85 µM): -0.651 ± 0.36%; LDH release cytotoxicity (31.1484 µM): 0.632 ± 0.25%; LDH release cytotoxicity (98.5 µM): 27.6 ± 5.5%
CC(=O)c1ccc2c(c1)C(NC(=O)c1ccc(F)cc1)C(O)C(C)(C)O2 (configuration not stated) [Carabersat] |  |  |  |  |  |  |  |  | LDH release cytotoxicity (0.0308322 µM): -0.845 ± 0.35%; LDH release cytotoxicity (0.0975 µM): -1.53 ± 0.47%; LDH release cytotoxicity (0.308322 µM): -2.26 ± 1.3%; LDH release cytotoxicity (0.975 µM): -2.21 ± 0.25%; LDH release cytotoxicity (3.0832207 µM): -1.81 ± 0.28%; LDH release cytotoxicity (9.75 µM): -1.6 ± 0.32%; LDH release cytotoxicity (30.832207 µM): -1.02 ± 0.098%; LDH release cytotoxicity (97.5 µM): 0.388 ± 0.96%
NC(=O)N1c2ccccc2C=Cc2ccccc21 [Carbamazepine] | -0.712 ± 0.62 | -0.993 ± 0.65 | -1.39 ± 0.76 | -0.89 ± 0.085 | -0.514 ± 0.98 | -1.28 ± 0.24 | -1.043 ± 0.0064 | 0.39 ± 0.34 | 
CNC(=O)Oc1cccc2ccccc12 [Carbaryl] | -0.447 ± 0.24 | -1.82 ± 1.5 | -1.28 ± 0.7 | -0.688 ± 1.2 | -0.561 ± 0.076 | 0.0525 ± 0.91 | 0.246 ± 1.1 | 0.543 ± 0.82 | 
COC(=O)Nc1nc2ccccc2[nH]1 [Carbendazim] | -1.09 ± 0.92 | -0.973 ± 1.7 | -1.51 ± 0.71 | -1.78 ± 0.15 | -1.63 ± 0.052 | 7.25 ± 0.6 | 7.37 ± 0.77 | 8.69 ± 0.71 | 
CNC(=O)Oc1cccc2c1OC(C)(C)C2 [Carbofuran] | -0.0403 ± 0.34 | -0.693 ± 0.36 | -0.49 ± 1.3 | -0.23 ± 0.93 | -0.812 ± 0.2 | -1.07 ± 0.049 | -0.52 ± 0.15 | 0.343 ± 0.33 | 
CCCCN(CCCC)SN(C)C(=O)Oc1cccc2c1OC(C)(C)C2 [Carbosulfan] | -3.56 ± 2.3 | -0.722 ± 0.37 | -0.938 ± 0.067 | -0.712 ± 0.067 | 0.429 ± 0.12 | 0.717 ± 0.68 | -0.247 ± 0.45 | 0.466 ± 0.2 | 
CC1=C(C(=O)Nc2ccccc2)SCCO1 [Carboxin] | -0.0118 ± 0.68 | -0.836 ± 2.2 | -1.79 ± 0.24 | -0.232 ± 1.3 | -1.1 ± 0.12 | -0.0461 ± 0.17 | 3.07 ± 1.5 | 8.14 ± 2.8 | 
CCOC(=O)C(Cl)Cc1cc(-n2nc(C)n(C(F)F)c2=O)c(F)cc1Cl (configuration not stated) [Carfentrazone-ethyl] | -0.276 ± 0.32 | -1.32 ± 0.6 | -0.782 ± 0.36 | -0.573 ± 0.12 | -0.524 ± 0.13 | -0.0179 ± 0.2 | -0.285 ± 0.48 | 1.22 ± 0.5 | 
CC(C)c1ccc(C(=O)N=C(N)N)cc1S(C)(=O)=O [Cariporide mesylate] |  |  |  |  |  |  |  |  | LDH release cytotoxicity (0.02356 µM): -0.0357 ± 0.59%; LDH release cytotoxicity (0.0745 µM): -1.69 ± 0.56%; LDH release cytotoxicity (0.23559 µM): -0.975 ± 1.1%; LDH release cytotoxicity (0.745 µM): -1.41 ± 0.45%; LDH release cytotoxicity (2.3559 µM): -0.944 ± 0.16%; LDH release cytotoxicity (7.45 µM): -0.838 ± 0.12%; LDH release cytotoxicity (23.559 µM): -1.46 ± 0.13%; LDH release cytotoxicity (74.5 µM): -0.256 ± 0.4%
Cc1c(C(=O)O)c(O)cc2c1C(=O)c1c(O)c(C3OC(CO)C(O)C(O)C3O)c(O)c(O)c1C2=O (configuration not stated) [Carminic acid] | -11.2 ± 0.91 | -11.08 ± 0.041 | -10.7 ± 0.6 | -11.1 ± 1.1 | -11.2 ± 0.61 | -11 ± 1.2 | -9.8 ± 2.3 | -10.4 ± 0.35 | 
Cc1ccc(-c2cc(C(F)(F)F)nn2-c2ccc(S(N)(=O)=O)cc2)cc1 [Celecoxib] | -1.06 ± 0.3 | -0.435 ± 0.23 | -0.88 ± 0.78 | -1.96 ± 0.9 | -1.21 ± 1 | -0.583 ± 0.15 | 3.13 ± 1.4 | 89.34 ± 0.16 | 
